ChEMBL document CHEMBL1201862, “PubChem BioAssay data set” (2004)
Where “and” joins values, the source holds several entries; their conditions need not be identical. Equal entries are not always repeated.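 A five-concentration, 48-hour dose response in 96-well plates underlies each endpoint, interpolated linearly between surrounding concentrations. Here, GI50 denotes the concentration required for 50% inhibition of growth.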 Calls of active or inactive are those of the source. Rule as the data show it: active = GI50 up to about 1.1 µM and inactive = higher.

Experiments:
Assay in all cases: inhibition of tumour cell growth, NCI panel, 48 h
786-0 = tested on: 786-0
CAKI-1 = tested on: CAKI-1
COLO 205 = tested on: COLO 205
HCT-15 = tested on: HCT-15
HOP-62 = tested on: HOP-62
IGROV-1 = tested on: IGROV-1
K562 = tested on: K562
MDA-N = tested on: MDA-N
NCI/ADR-RES = tested on: NCI/ADR-RES
OVCAR-8 = tested on: OVCAR-8
SF-295 = tested on: SF-295
SK-MEL-2 = tested on: SK-MEL-2
SN12C = tested on: SN12C
SNB-19 = tested on: SNB-19
SW-620 = tested on: SW-620
U-251 = tested on: U-251
UACC-62 = tested on: UACC-62
Malme-3M = tested on: Malme-3M
BT-549 = tested on: BT-549

SMILES	GI50 (786-0)	GI50 (CAKI-1)	GI50 (COLO 205)	GI50 (HCT-15)	GI50 (HOP-62)	GI50 (IGROV-1)	GI50 (K562)	GI50 (MDA-N)	GI50 (NCI/ADR-RES)	GI50 (OVCAR-8)	GI50 (SF-295)	GI50 (SK-MEL-2)	GI50 (SN12C)	GI50 (SNB-19)	GI50 (SW-620)	GI50 (U-251)	GI50 (UACC-62)	GI50 (Malme-3M)	GI50 (BT-549)
COCOCC1CCCN1CN1CCC[C@H]1COCOC (some centres not stated)	26.5 µM (inactive)	> 100 µM (inactive)	77.8 µM (inactive)	38.3 µM	> 100 µM (inactive)	> 100 µM (inactive)	> 100 µM (inactive)	> 100 µM (inactive)	> 100 µM (inactive)	> 100 µM (inactive)	> 100 µM (inactive)	> 100 µM (inactive)	> 100 µM (inactive)	> 100 µM (inactive)	33.2 µM (inactive)	> 100 µM (inactive)	36.6 µM (inactive)		
CC1(C)C=[N+]([O-])C(C)(C)N1	> 100 µM (inactive)	> 100 µM (inactive)	> 100 µM (inactive)	> 100 µM	> 100 µM (inactive)	> 100 µM (inactive)	> 100 µM (inactive)	> 100 µM (inactive)	> 100 µM (inactive)	> 100 µM (inactive)	> 100 µM (inactive)	> 100 µM (inactive)	> 100 µM (inactive)	> 100 µM (inactive)	> 100 µM (inactive)	> 100 µM (inactive)	> 100 µM (inactive)	> 100 µM (inactive)	
Cn1c2c(c3ccccc31)CC(=O)N1CCCCC1C21OCCO1 (configuration not stated)	> 100 µM (inactive)	> 100 µM (inactive)	> 100 µM (inactive)	> 100 µM	> 100 µM (inactive)	> 100 µM (inactive)		> 100 µM (inactive)	> 100 µM (inactive)	> 100 µM (inactive)	> 100 µM (inactive)	> 100 µM (inactive)	> 100 µM (inactive)	> 100 µM (inactive)	> 100 µM (inactive)	> 100 µM (inactive)	> 100 µM (inactive)	> 100 µM (inactive)	> 100 µM (inactive)
C/C(=N\NC(=O)c1ccccc1O)C1=CNc2ccccc2S1	4.71 µM (inactive)	6.38 µM (inactive)			4.59 µM (inactive)	5.92 µM (inactive)	3.75 µM (inactive)			3.7 µM (inactive)	4.01 µM (inactive)	2.15 µM (inactive)	4.05 µM (inactive)	5.56 µM (inactive)	3.65 µM (inactive)	5.87 µM (inactive)	2.44 µM (inactive)	3.1 µM (inactive)	
COc1ccccc1-n1cnc2c1=NC(C)(C)NC=2C(N)=O	> 100 µM (inactive)	> 100 µM (inactive)	> 100 µM (inactive)	> 100 µM	> 100 µM (inactive)	> 100 µM (inactive)	> 100 µM (inactive)	> 100 µM (inactive)	> 100 µM (inactive)	> 100 µM (inactive)	> 100 µM (inactive)	> 100 µM (inactive)	> 100 µM (inactive)	> 100 µM (inactive)	> 100 µM (inactive)	> 100 µM (inactive)	> 100 µM (inactive)	> 100 µM (inactive)	
C[n+]1c2ccc(Cl)cc2nc2cc(-c3ccccc3)ccc21	35.3 µM (inactive)	16.4 µM (inactive)	3.58 µM (inactive)	7.76 µM	23 µM (inactive)	10 µM (inactive)	7.13 µM (inactive)		33.2 µM (inactive)	3.67 µM (inactive)	1.74 µM (inactive)	19.8 µM (inactive)	4.24 µM (inactive)	5.12 µM (inactive)	4.7 µM (inactive)	5.21 µM (inactive)	18.4 µM (inactive)	19.4 µM (inactive)	11.1 µM (inactive)
CCOc1ccccc1NC(=O)CCc1n[nH]c(=S)o1	> 100 µM (inactive)	> 100 µM (inactive)				> 10 µM (inactive)	> 100 µM (inactive)				> 100 µM (inactive)	> 100 µM (inactive)	> 100 µM (inactive)	> 100 µM (inactive)	> 100 µM (inactive)	> 100 µM (inactive)	> 100 µM (inactive)	> 100 µM (inactive)	
Cc1cccc(-c2nnc(S)[nH]2)c1	> 100 µM (inactive)	> 100 µM (inactive)	> 100 µM (inactive)	> 100 µM	> 100 µM (inactive)	> 100 µM (inactive)	> 100 µM (inactive)			> 100 µM (inactive)	> 100 µM (inactive)	> 100 µM (inactive)	> 100 µM (inactive)	> 100 µM (inactive)	> 100 µM (inactive)	> 100 µM (inactive)	> 100 µM (inactive)	> 100 µM (inactive)	
CC(=O)NC1C(CO)O[C@@H]2OC(C)(C)O[C@H]12 (some centres not stated)	> 100 µM (inactive)	> 100 µM (inactive)		> 100 µM	> 100 µM (inactive)	> 100 µM (inactive)		> 100 µM (inactive)	> 100 µM (inactive)	> 100 µM (inactive)	> 100 µM (inactive)	> 100 µM (inactive)	> 100 µM (inactive)	> 100 µM (inactive)	> 100 µM (inactive)	> 100 µM (inactive)	> 100 µM (inactive)	> 100 µM (inactive)	> 100 µM (inactive)
C=C1C(=O)O[C@H]2C1C[C@H](O)/C(C)=C/CC[C@@]1(C)O[C@H]21 (some centres not stated)	16.9 µM (inactive)	14.5 µM (inactive)	0.782 µM (active)	12.2 µM	33.7 µM (inactive)	14.8 µM (inactive)	8.53 µM (inactive)	13.7 µM (inactive)	14.6 µM (inactive)	18 µM (inactive)	31.5 µM (inactive)	15.2 µM (inactive)	18.2 µM (inactive)	60.1 µM (inactive)	2.09 µM (inactive)	> 100 µM (inactive)	10.9 µM (inactive)	6.14 µM (inactive)	
CN(C)CCCNC(=O)c1cc(NC(=O)c2cc(NC(=O)[C@@H]3C[C@H]3C(=O)Nc3cc(C(=O)Nc4cc(C(=O)NCCCN(C)C)n(C)c4)n(C)c3)cn2C)cn1C	> 100 µM (inactive)	> 100 µM (inactive)	> 100 µM (inactive)		> 100 µM (inactive)	> 100 µM (inactive)	> 100 µM (inactive)		> 100 µM (inactive)	> 100 µM (inactive)	> 100 µM (inactive)	> 100 µM (inactive)	> 100 µM (inactive)	> 100 µM (inactive)	> 100 µM (inactive)	> 100 µM (inactive)		> 100 µM (inactive)	> 100 µM (inactive)
C=C(Cl)C(=C)CCC(Cl)C(C)(C)Cl (configuration not stated)	> 100 µM (inactive)	> 100 µM (inactive)	> 100 µM (inactive)		> 100 µM (inactive)	> 100 µM (inactive)	> 100 µM (inactive)	> 100 µM (inactive)	> 100 µM (inactive)		> 100 µM (inactive)	> 100 µM (inactive)	> 100 µM (inactive)	> 100 µM (inactive)	> 100 µM (inactive)	> 100 µM (inactive)	> 100 µM (inactive)	> 100 µM (inactive)	> 100 µM (inactive)
NC(=O)N/N=C1/c2ccccc2-n2nccc21	76.6 µM (inactive)	52.5 µM (inactive)	67.1 µM (inactive)	55.7 µM	70.1 µM (inactive)	39.9 µM (inactive)	75.7 µM (inactive)	43.1 µM (inactive)	> 100 µM (inactive)	> 100 µM (inactive)	> 100 µM (inactive)	> 100 µM (inactive)	89.9 µM (inactive)	> 100 µM (inactive)	> 100 µM (inactive)	> 100 µM (inactive)	48.6 µM (inactive)	> 100 µM (inactive)	
COC(=O)[C@H](Cc1ccccc1)NC(=O)[C@H](Cc1ccccc1)NC(=O)CN1C(=O)[C@@H]2C3C=CC(C3)[C@@H]2C1=O	15.5 µM (inactive) and 14.2 µM (inactive)	16.7 µM (inactive) and 18.6 µM (inactive)	17.1 µM (inactive) and 15.8 µM (inactive)	15.6 µM and 17.4 µM	19.7 µM (inactive) and 18.7 µM (inactive)	16.5 µM (inactive) and 12.9 µM (inactive)		16.5 µM (inactive) and 17.2 µM (inactive)	33 µM (inactive) and 22.2 µM (inactive)	14.8 µM (inactive) and 19.6 µM (inactive)	18.5 µM (inactive) and 19.2 µM (inactive)	18.2 µM (inactive) and 17.9 µM (inactive)	18.2 µM (inactive) and 16.7 µM (inactive)	21 µM (inactive) and 20.8 µM (inactive)	16.5 µM (inactive) and 20.9 µM (inactive)	16.4 µM (inactive) and 17.6 µM (inactive)	16.4 µM (inactive) and 16.6 µM (inactive)		16.6 µM (inactive) and 18.2 µM (inactive)
CC1=Nn2c(nnc2-c2ccccc2Cl)NC(C)(C)C1	> 100 µM (inactive)	> 100 µM (inactive)	54.2 µM (inactive)	51.9 µM	> 100 µM (inactive)	> 100 µM (inactive)	42.9 µM (inactive)			> 100 µM (inactive)	> 100 µM (inactive)	> 100 µM (inactive)	> 100 µM (inactive)	> 100 µM (inactive)	6.25 µM (inactive)	81.7 µM (inactive)	> 100 µM (inactive)		
OB1OCc2ccccc21 [BENZOXABOROLE]	39.7 µM (inactive)	34.7 µM (inactive)	33.7 µM (inactive)	24.7 µM	26.7 µM (inactive)	35.2 µM (inactive)	67.8 µM (inactive)		22.3 µM (inactive)	31.1 µM (inactive)	12.1 µM (inactive)	37.2 µM (inactive)	39.7 µM (inactive)	60.8 µM (inactive)	30.7 µM (inactive)	62.7 µM (inactive)	35.9 µM (inactive)	> 100 µM (inactive)	> 100 µM (inactive)
